Data: patent publication US10392368B2, “Pyrazolo and triazolo bicyclic compounds as JAK kinase inhibitors” (THERAVANCE BIOPHARMA R&D IP, LLC, priority 2017, dated 2019)

Legend:
JAK3 = target: T1, JAK3 (Homo sapiens, UniProt P52333); experiment: Biochemical JAK3 kinase assay (LanthaScreen); parameters: GST; purchased Life Technologies; conditions: for JAK3 (pKi)-JAK1 (pKi): selectivity: difference of pKi JAK3 and pKi JAK1; for Ki: read-out: JAK 3 (pKi) (converted)
T1 sequence (P52333 1-1124): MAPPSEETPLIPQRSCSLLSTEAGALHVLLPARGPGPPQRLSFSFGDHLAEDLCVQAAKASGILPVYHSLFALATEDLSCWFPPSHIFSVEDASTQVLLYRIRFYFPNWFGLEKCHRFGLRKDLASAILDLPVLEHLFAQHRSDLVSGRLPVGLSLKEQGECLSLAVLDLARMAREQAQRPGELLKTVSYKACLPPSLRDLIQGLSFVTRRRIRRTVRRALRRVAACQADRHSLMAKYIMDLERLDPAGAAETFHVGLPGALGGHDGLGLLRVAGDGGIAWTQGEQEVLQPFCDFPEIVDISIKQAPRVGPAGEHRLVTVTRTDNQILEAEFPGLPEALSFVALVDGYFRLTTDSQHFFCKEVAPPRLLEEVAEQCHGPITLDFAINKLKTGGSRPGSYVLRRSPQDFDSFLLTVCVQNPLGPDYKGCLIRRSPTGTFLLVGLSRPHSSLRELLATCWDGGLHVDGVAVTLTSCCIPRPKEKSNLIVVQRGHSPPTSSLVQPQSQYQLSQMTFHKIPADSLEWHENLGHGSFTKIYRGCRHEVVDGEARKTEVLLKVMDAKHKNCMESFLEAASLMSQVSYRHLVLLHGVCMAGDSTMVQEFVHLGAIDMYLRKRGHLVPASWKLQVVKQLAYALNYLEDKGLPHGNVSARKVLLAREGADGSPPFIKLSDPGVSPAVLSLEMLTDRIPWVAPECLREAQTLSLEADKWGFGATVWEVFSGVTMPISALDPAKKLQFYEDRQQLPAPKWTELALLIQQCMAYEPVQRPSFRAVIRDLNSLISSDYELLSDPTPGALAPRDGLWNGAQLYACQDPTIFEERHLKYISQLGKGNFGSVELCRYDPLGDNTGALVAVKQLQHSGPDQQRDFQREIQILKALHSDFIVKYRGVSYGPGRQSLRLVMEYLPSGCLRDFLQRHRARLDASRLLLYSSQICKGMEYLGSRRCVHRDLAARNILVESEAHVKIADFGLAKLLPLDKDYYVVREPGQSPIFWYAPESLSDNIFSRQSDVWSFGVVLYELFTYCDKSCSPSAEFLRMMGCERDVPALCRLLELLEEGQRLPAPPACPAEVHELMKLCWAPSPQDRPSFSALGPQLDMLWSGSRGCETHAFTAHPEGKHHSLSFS
Method in brief: (§1)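 Recombinant GST-tagged JAK enzymes with GFP-STAT1 peptide substrate in 50 mM HEPES pH 7.5, 10 mM MgCl2, 1 mM EGTA, 0.01% Brij-35; compounds pre-incubated 1 h, then ATP added, 1 h reaction at ambient temperature. TR-FRET (Tb-anti-pSTAT1 pTyr701, 520/495 nm) after EDTA stop; IC50 by 4-parameter fit, converted to pKi via Cheng-Prusoff.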

JAK2 = target: T2, JAK2 (Homo sapiens, UniProt O60674); experiment: Biochemical JAK2 kinase assay (LanthaScreen); conditions: for Ki: read-out: JAK 2 (pKi) (converted)
T2 construct: GST; purchased Life Technologies
T2 sequence (O60674 whole entry): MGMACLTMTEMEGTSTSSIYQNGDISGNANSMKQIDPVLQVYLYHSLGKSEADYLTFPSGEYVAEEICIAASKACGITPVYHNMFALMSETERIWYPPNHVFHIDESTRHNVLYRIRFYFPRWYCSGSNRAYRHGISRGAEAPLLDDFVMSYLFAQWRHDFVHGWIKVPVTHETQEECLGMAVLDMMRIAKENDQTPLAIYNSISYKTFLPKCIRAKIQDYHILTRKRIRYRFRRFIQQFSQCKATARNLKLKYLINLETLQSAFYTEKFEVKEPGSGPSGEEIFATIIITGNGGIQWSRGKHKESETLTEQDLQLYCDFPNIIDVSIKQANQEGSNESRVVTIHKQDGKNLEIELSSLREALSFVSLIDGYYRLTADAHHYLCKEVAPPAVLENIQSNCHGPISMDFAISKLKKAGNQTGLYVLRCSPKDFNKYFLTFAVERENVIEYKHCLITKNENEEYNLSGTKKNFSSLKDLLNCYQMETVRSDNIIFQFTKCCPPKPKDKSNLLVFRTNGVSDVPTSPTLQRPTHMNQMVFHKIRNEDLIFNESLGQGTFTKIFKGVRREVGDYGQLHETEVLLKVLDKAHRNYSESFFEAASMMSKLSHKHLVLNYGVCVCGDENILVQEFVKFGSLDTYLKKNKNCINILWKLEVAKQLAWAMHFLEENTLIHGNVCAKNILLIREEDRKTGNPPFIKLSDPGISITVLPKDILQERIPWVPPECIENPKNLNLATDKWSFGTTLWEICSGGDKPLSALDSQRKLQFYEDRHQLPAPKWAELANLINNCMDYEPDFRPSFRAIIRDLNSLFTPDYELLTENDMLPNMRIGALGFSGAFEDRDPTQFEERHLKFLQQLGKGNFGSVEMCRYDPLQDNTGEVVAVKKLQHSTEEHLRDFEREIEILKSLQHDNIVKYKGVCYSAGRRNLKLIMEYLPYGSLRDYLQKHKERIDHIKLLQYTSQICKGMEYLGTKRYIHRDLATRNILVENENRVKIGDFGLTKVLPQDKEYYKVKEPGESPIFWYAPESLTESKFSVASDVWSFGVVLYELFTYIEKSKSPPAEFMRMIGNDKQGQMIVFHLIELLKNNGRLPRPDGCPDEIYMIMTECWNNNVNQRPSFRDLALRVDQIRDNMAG
Method in brief: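 pKi values derive from pIC50 via Cheng-Prusoff, with IC50 from a 4-parameter fit of percent-inhibition TR-FRET data using Tb-anti-pSTAT1 (pTyr701) detection. Compound, GST-JAK2 and GFP-STAT1 substrate were pre-incubated 1 h, then ATP started a 1 h ambient reaction (HEPES pH 7.5, 10 mM MgCl2, 1% DMSO).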

[1] = system: IL-2 stimulated pSTAT5 in Tall-1 T cells; experiment: Cellular JAK3 potency assay: inhibition of IL-2 stimulated pSTAT5 in Tall-1 T cells; assay type: cell-based, human; conditions: for Tall-1 (pIC50): IL-2 stimulated pSTAT5 in Tall-1 T cells; for IC50: Homo sapiens, TALL-1, IL-2 stimulated pSTAT5 in Tall-1 T cells, read-out: Tall-1 (pIC50) (converted)
Method in brief: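 Inhibition of IL-2-induced pSTAT5 was quantified by AlphaLisa in Tall-1 cell lysates. Compound exposure lasted 1 h before 30 min stimulation with 300 ng/ml IL-2 final.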

JAK1 = target: T3, JAK1 (Homo sapiens, UniProt P23458); experiment: Biochemical JAK1 kinase assay (LanthaScreen); conditions: for Ki: read-out: JAK 1 (pKi) (converted)
T3 construct: GST; purchased Life Technologies
T3 sequence (P23458 whole entry): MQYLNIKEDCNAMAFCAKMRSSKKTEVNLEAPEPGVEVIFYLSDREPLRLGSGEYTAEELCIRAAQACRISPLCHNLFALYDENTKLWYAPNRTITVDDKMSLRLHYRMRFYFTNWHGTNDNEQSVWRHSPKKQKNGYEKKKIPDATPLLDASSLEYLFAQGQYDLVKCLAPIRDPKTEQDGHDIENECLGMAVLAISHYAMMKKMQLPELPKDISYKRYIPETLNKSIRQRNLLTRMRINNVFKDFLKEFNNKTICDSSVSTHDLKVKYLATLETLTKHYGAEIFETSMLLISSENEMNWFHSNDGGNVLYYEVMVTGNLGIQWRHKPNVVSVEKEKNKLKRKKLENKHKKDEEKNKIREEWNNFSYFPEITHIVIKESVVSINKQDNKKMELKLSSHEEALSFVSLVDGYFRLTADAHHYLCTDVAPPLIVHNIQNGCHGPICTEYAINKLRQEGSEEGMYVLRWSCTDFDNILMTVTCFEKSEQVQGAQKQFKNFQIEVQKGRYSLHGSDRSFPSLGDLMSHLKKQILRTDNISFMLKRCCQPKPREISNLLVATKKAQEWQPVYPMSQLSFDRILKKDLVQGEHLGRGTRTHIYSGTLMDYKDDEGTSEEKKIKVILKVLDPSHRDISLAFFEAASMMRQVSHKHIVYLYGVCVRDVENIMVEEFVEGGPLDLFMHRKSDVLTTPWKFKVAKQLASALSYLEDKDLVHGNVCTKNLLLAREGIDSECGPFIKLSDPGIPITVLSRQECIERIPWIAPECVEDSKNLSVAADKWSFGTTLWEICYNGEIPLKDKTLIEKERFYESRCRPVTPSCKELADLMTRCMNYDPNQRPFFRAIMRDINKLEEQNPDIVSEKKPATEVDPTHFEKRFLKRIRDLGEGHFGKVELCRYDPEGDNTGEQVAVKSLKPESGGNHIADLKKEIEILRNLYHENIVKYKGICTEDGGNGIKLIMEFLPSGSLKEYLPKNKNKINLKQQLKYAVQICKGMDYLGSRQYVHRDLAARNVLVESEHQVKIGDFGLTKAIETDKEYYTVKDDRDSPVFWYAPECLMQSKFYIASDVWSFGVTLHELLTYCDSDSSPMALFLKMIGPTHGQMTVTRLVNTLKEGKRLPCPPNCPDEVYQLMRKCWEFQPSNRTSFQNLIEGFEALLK
Method in brief: as §1

Tyk2 = target: T4, Tyk2 (Homo sapiens, UniProt P29597); experiment: Biochemical Tyk2 kinase assay (LanthaScreen); conditions: for Ki: read-out: Tyk 2 (pKi) (converted)
T4 construct: GST; purchased Life Technologies
T4 sequence (P29597 whole entry): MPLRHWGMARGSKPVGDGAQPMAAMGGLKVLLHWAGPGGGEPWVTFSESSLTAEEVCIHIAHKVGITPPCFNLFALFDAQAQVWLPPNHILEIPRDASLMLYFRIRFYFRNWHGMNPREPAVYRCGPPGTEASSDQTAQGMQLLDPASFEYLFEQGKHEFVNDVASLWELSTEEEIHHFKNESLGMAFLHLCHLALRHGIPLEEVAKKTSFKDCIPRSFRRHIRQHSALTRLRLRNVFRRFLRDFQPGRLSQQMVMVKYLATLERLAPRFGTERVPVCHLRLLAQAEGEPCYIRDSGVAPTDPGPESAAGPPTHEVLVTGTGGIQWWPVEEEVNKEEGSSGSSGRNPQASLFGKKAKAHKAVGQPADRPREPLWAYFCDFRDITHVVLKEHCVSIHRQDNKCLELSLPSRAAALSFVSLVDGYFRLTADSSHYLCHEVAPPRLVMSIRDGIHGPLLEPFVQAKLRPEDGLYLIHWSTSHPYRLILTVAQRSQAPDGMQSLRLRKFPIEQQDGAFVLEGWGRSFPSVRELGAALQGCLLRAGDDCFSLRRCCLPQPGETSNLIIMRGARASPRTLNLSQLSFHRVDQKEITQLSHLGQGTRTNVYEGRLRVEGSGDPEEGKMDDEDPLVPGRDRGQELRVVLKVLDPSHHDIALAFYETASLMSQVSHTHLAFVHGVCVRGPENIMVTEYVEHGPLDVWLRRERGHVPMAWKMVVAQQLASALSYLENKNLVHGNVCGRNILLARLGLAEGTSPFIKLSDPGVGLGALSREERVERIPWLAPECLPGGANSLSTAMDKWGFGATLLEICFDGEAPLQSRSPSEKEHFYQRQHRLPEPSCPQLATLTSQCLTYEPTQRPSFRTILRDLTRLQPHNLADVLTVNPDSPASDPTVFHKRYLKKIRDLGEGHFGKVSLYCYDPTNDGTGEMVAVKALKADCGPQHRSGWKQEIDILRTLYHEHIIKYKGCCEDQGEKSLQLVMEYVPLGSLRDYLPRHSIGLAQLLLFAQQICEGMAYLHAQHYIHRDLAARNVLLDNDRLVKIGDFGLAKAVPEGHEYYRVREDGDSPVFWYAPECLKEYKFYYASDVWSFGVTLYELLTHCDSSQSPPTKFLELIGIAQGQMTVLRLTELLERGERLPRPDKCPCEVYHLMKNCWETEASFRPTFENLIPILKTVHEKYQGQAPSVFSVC
Method in brief: as §1

SMILES | JAK 3 (pKi) (JAK3) | JAK3 (pKi)-JAK1 (pKi) (JAK3) | JAK 2 (pKi) (JAK2) | Tall-1 (pIC50) [1] | JAK 1 (pKi) (JAK1) | Tyk 2 (pKi) (Tyk2) | Ki (JAK3) [nM] | Ki (JAK2) [nM] | IC50 [1] [nM] | Ki (JAK1) [nM] | Ki (Tyk2) [nM]
C=CC(=O)N1CC(COc2nc(-c3ccc(O)cc3)nc3[nH]ncc23)C1C (stereo not drawn) [Compound 3-31] | A (a pKi value≥10 (Ki≤0.1 nM)) | A (a value of 3 or above) | E (a pKi value of 7 or below (Ki of 100 nM or above)) | B (a pIC50 value between 6.7 (included) and 7.5 (IC50 between 200 nM and 32 nM)) | E (a pKi value of 7 or below (Ki of 100 nM or above)) | E (a pKi value of 7 or below (Ki of 100 nM or above)) |  |  |  |  | 
COC1(COc2cc(-c3ccc(O)cc3)cc3[nH]ncc23)CN(C(=O)/C=C/CN(C)C)C1 [Compound 3-32] |  | A (a value of 3 or above) |  |  |  |  | 0.1 to 1 | > 100 | < 31.6 | > 100 | > 100
C=CC(=O)N1CC(COc2cc(-c3ccc(O)cc3)cc3[nH]ncc23)(OC)C1 [Compound 3-33] | B (a pKi value between 9 and 10 (Ki between 1 nM and 0.1 nM)) | B (a value of 2.3 to 3) | E (a pKi value of 7 or below (Ki of 100 nM or above)) | B (a pIC50 value between 6.7 (included) and 7.5 (IC50 between 200 nM and 32 nM)) | E (a pKi value of 7 or below (Ki of 100 nM or above)) | E (a pKi value of 7 or below (Ki of 100 nM or above)) |  |  |  |  | 
C=CC(=O)N1CC(COc2nc(-c3ccc(O)c(Cl)c3)cc3[nH]ncc23)C1 [Compound 3-35] |  | A (a value of 3 or above) |  |  |  |  | 0.1 to 1 | > 100 | < 31.6 | > 100 | > 100
CN(C)C/C=C/C(=O)N1CC(COc2nc(-c3ccc(O)c(F)c3)cc3[nH]ncc23)C1 [Compound 3-36] |  | A (a value of 3 or above) |  |  |  |  | < 0.1 | > 100 | 31.6 to 200 | > 100 | > 100
C=CC(=O)N1CC(COc2nc(-c3ccc(O)c(F)c3)cc3[nH]ncc23)C1 [Compound 3-37] |  | A (a value of 3 or above) |  |  |  |  | < 0.1 | 10 to 100 | < 31.6 | > 100 | > 100
C=CC(=O)N1CC(COc2nc(-c3ccc(O)c(Cl)c3)nc3[nH]ncc23)C1 [Compound 3-38] |  | A (a value of 3 or above) |  |  |  |  | < 0.1 | > 100 | 31.6 to 200 | > 100 | > 100
C=CC(=O)N1CC(COc2nc(-c3ccc(O)c(F)c3)nc3[nH]ncc23)C1 [Compound 3-39] |  | A (a value of 3 or above) |  |  |  |  | < 0.1 | > 100 | 31.6 to 200 | > 100 | > 100
CN(C)C/C=C/C(=O)N1CC(F)(COc2cc(-c3ccc(O)c(F)c3)cc3[nH]ncc23)C1 [Compound 3-40] |  | A (a value of 3 or above) |  |  |  |  | < 0.1 | 10 to 100 | < 31.6 | 0.1 to 1 | > 100
C=CC(=O)N1CC(F)(COc2cc(-c3ccc(O)c(F)c3)cc3[nH]ncc23)C1 [Compound 3-41] |  | B (a value of 2.3 to 3) |  |  |  |  | 0.1 to 1 | 1 to 10 | < 31.6 | 0.1 to 1 | > 100
CN(C)C/C=C/C(=O)N1CC(F)(COc2cc(-c3ccc(O)c(Cl)c3)cc3[nH]ncc23)C1 [Compound 3-42] |  | B (a value of 2.3 to 3) |  |  |  |  | 0.1 to 1 | 10 to 100 | < 31.6 | 0.1 to 1 | > 100
C=CC(=O)N1CC(F)(COc2cc(-c3ccc(O)c(Cl)c3)cc3[nH]ncc23)C1 [Compound 3-43] | B (a pKi value between 9 and 10 (Ki between 1 nM and 0.1 nM)) | A (a value of 3 or above) | D (a pKi value between 7 and 8 (Ki between 100 nM and 10 nM)) | A (a pIC50 value≥7.5 (IC50≤32 nM)) | E (a pKi value of 7 or below (Ki of 100 nM or above)) | E (a pKi value of 7 or below (Ki of 100 nM or above)) |  |  |  |  | 
CN(C)C/C=C/C(=O)N1CC(F)(COc2nc(-c3ccc(O)cc3)cc3[nH]ncc23)C1 [Compound 3-44] | B (a pKi value between 9 and 10 (Ki between 1 nM and 0.1 nM)) | B (a value of 2.3 to 3) | D (a pKi value between 7 and 8 (Ki between 100 nM and 10 nM)) | A (a pIC50 value≥7.5 (IC50≤32 nM)) | D (a pKi value between 7 and 8 (Ki between 100 nM and 10 nM)) | E (a pKi value of 7 or below (Ki of 100 nM or above)) |  |  |  |  | 
C=CC(=O)N1CC(F)(COc2nc(-c3ccc(O)cc3)nc3[nH]ncc23)C1 [Compound 3-45] |  | A (a value of 3 or above) |  |  |  |  | 0.1 to 1 | > 100 | < 31.6 | > 100 | > 100
C=CC(=O)N1CC(F)(COc2cc(-c3ccc(O)cc3)nc3[nH]ncc23)C1 [Compound 3-46] |  | A (a value of 3 or above) |  |  |  |  | < 0.1 | > 100 | < 31.6 | > 100 | > 100
C=CC(=O)N1CC(F)(COc2nc(-c3ccc(O)c(Cl)c3)cc3[nH]ncc23)C1 [Compound 3-47] |  | B (a value of 2.3 to 3) |  |  |  |  | 0.1 to 1 | 10 to 100 | < 31.6 | > 100 | > 100
CN(C)C/C=C/C(=O)N1CC(F)(COc2nc(-c3ccc(O)c(F)c3)cc3[nH]ncc23)C1 [Compound 3-48] | A (a pKi value≥10 (Ki≤0.1 nM)) | A (a value of 3 or above) | D (a pKi value between 7 and 8 (Ki between 100 nM and 10 nM)) | A (a pIC50 value≥7.5 (IC50≤32 nM)) | D (a pKi value between 7 and 8 (Ki between 100 nM and 10 nM)) | E (a pKi value of 7 or below (Ki of 100 nM or above)) |  |  |  |  | 
C=CC(=O)N1CC(F)(COc2nc(-c3ccc(O)c(F)c3)cc3[nH]ncc23)C1 [Compound 3-49] |  | B (a value of 2.3 to 3) |  |  |  |  | 0.1 to 1 | 10 to 100 | < 31.6 | > 100 | > 100
CN(C)C/C=C/C(=O)N1CC(F)(COc2nc(-c3ccc(O)c(Cl)c3)nc3[nH]ncc23)C1 [Compound 3-50] |  | A (a value of 3 or above) |  |  |  |  | 0.1 to 1 | > 100 | 31.6 to 200 | > 100 | > 100
CN(C)C/C=C/C(=O)N1CC(F)(COc2nc(-c3ccc(O)c(F)c3)nc3[nH]ncc23)C1 [Compound 3-51] | B (a pKi value between 9 and 10 (Ki between 1 nM and 0.1 nM)) | A (a value of 3 or above) | E (a pKi value of 7 or below (Ki of 100 nM or above)) | C (a pIC50 value between 6 and 6.7 (IC50 between 1 μM and 200 nM)) | E (a pKi value of 7 or below (Ki of 100 nM or above)) | E (a pKi value of 7 or below (Ki of 100 nM or above)) |  |  |  |  | 
